Measurements from PubChem BioAssay AID179 (DTP/NCI, 2004).
Calls of active or inactive are those of the source.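 The calls were made as follows: active = compounds giving half or more protection of infected cells from virus-caused growth loss, again on retest; inactive = the rest.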

Tested on: CEM cells HIV-1 protection, formazan growth assay
Test: NCI AIDS Antiviral Assay
Conditions: for IC50: measured here: growth of uninfected CEM cells
Outline: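 Screen of anti-HIV-1 activity in human CEM cells using a formazan-based growth measurement at five drug concentrations. Hits with 50% or greater protection were repeated, and confirmation required reproducible complete protection.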

| Structure (SMILES) | EC50 [µM] | IC50 [µM] | outcome |
| --- | --- | --- | --- |
| CCN(CC)CCCN1CC(=O)N2CCCCN2C(=O)C1 | > 200 | > 200 | – |
| C#CC1(O)CCC2[C@@H]3CCc4cc(Oc5nc(F)nc(-c6c7ccccc7c(SCC)n6CCC)n5)ccc4C3CC[C@@]21C (some centres not stated) | > 6.17 | > 6.17 | – |
| Cc1cn(C2CC(ON)C(CO)O2)c(=O)[nH]c1=O (configuration not stated) | > 200 | > 200 | – |
| Cc1cc(S(=O)(=O)Nc2nc(N)nc(N3CCOCC3)n2)c(SCC(=O)O)cc1Cl | > 200 | > 200 | – |
| OC1C2CCCC1C1(CCCCC1)C1CCCCC21O (configuration not stated) | – | – | inactive |
| O=C(COc1ccccc1Cl)N1N=C(c2ccccc2)CC1(O)c1ccccc1 (configuration not stated) | > 24.5 | > 24.5 | – |
| CCOC(=O)/C(O)=C1\C(=O)N(C)C(=O)C1c1cccc(OC)c1 (configuration not stated) | – | – | inactive |
| COc1cc(Br)c(C=Nc2cccc3ccc(OS(=O)(=O)c4cccc([N+](=O)[O-])c4)cc23)cc1OC | – | – | inactive |
| [O-]c1on[n+]2c1CSC2 | > 1740 | > 1740 | – |
| C[C@H]1CCCCC[C@@H]2CC(=O)CC2C(=O)CCC(=O)O1 (some centres not stated) | > 200 | > 200 | – |
| CCCc1cc(=O)oc2c3c(cc(OS(=O)(=O)c4ccc(C)cc4)c12)O[C@H](C)[C@H](C)C3=O | > 151 | 95.5 | – |
| O=C1c2ccccc2S(=O)(=O)c2c1cccc2[N+](=O)[O-] | > 200 | 0.851 | – |
| O=[N+]([O-])c1ccc(N2N=NC3C4CCC(C4)C32)cc1 (configuration not stated) | > 95.5 | 43.7 | – |
| O=C(CC(O)c1cccnc1)CC(O)c1cccnc1 (configuration not stated) | > 200 | 2.82 | – |
| Cc1ccc(Nc2nc(N)[nH]c(=O)c2N=O)cc1 | > 200 | 14.8 | – |
| Cc1cccc(NC(=O)C(=O)C(C(=O)c2ccc3ccccc3c2)C2OC(=O)c3ccccc32)c1C (configuration not stated) | > 28.2 | 26.3 | – |
| C=CCC12CC(O)C(O)CC1(OC)OC(c1cc(OC)c(OC)c(OC)c1)C2C (configuration not stated) | > 200 | 129 | – |
| Cn1cc(NC(=O)c2cc(NC(=O)CCCCCCC(=O)Nc3cc(C(=O)Nc4cc(C(=O)NCCC(=N)N)n(C)c4)n(C)c3)cn2C)cc1C(=O)NCCC(=N)N | > 204 | 35.5 | – |
| CCCCCCCCCCCCNS(=O)(=O)c1ccc(-c2c3nc(c(-c4ccc(S(=O)(=O)NCCCCCCCCCCCC)cc4)c4ccc([nH]4)c(-c4ccc(S(=O)(=O)NCCCCCCCCCCCC)cc4)c4nc(c(-c5ccc(S(=O)(=O)NCCCCCCCCCCCC)cc5)c5ccc2[nH]5)C=C4)C=C3)cc1 | > 100 | > 100 | – |
| Cc1cc(C)c(S(=O)(=O)N(CCCN)OCCCN)c(C)c1 | > 200 | 195 | – |

| Structure (SMILES) | EC50 [µM] | IC50 [µM] | outcome |
| --- | --- | --- | --- |
| Cc1cn([C@@H]2O[C@H](CO[Si](C)(C)C(C)(C)C)[C@]3(O[C@H]3C(=O)NN)[C@H]2O[Si](C)(C)C(C)(C)C)c(=O)[nH]c1=O | > 200 | 3.63 | – |
| Cc1nn2c(N)cc(=O)nc2nc1/C=C/c1ccc(N(C)C)cc1 | > 200 | 4.27 | – |
| CC(CCc1nc2ccccc2o1)C1CCC2C3CC[C@@H]4C[C@H](O)CC[C@]4(C)C3CC[C@]12C (some centres not stated) | > 50.1 | 17.4 | – |
| COc1ccc(C2=Nn3c(nc4sc(C)c(C)c4c3=O)SC2)cc1 | > 200 | > 200 | – |
| O=c1oc2ccccc2cc1-n1nnc2cc([N+](=O)[O-])ccc21 | > 8.91 | > 8.91 | – |
| NC(N)=NCCCC(NC(=O)OCCCCn1ccc(N)nc1=O)C(=O)O (configuration not stated) | > 200 | > 200 | – |
| N.N.N.N.N.O=C([O-])C(=O)[O-].[Co+3].[O-][Cl+3]([O-])([O-])O.[O-][Cl+3]([O-])([O-])[O-] | – | – | inactive |
| CCCCC1SC2=NCCN2C1(O)c1ccc(Cl)cc1 (configuration not stated) | > 200 | 102 | – |
| Cc1ccc(Cc2c(=O)[nH]nc3ccccc23)cc1 | > 39.8 | > 39.8 | – |
| Cc1ccccc1-c1c(N)nc(N)nc1C(=O)Nc1nccs1 | > 41.7 | > 41.7 | – |
| CC(=O)N1OC(C)CC1Nc1ccc(Br)cc1 (configuration not stated) | > 200 | 25.1 | – |
| O=C1NC(Cc2ccc(Cl)cc2)C(=O)N2CCCC12 (configuration not stated) | > 200 | 95.5 | – |
| C/C(N)=C\c1nc(=O)ccs1 | > 178 | 129 | – |
| COc1cccc(NCC(=O)Nn2c(-c3ccccc3)nc3ccccc3c2=O)c1 | > 200 | 112 | – |
| Cc1cc2c(c(C(C)(C)C)c1)O[P+](=O)Oc1c(cc(C)cc1C(C)(C)C)C2 | > 18.6 | > 18.6 | – |
| Cc1ccc(/C=C2\N=C(N3CCCC(CO)C3)NC2=O)cc1 (configuration not stated) | > 200 | > 200 | – |
| CC(C)O[C@H]1N(C2CC(N=[N+]=[N-])C(CO)O2)C(=O)NC(=O)[C@]1(C)Br (some centres not stated) | 2.88 | > 200 | – |
| O=C(Nc1nc(C23CC4CC(CC(C4)C2)C3)cs1)c1cc2cc(Cl)ccc2oc1=O | > 200 | > 200 | – |
| CCCc1cc(=O)oc2c3c(c4c(c12)OC(C)(C)CC4)O[C@H](C)[C@@H](C)[C@H]3O | > 200 | 10.7 | – |
| COc1ccc(NC(=O)/N=C2\CN(C(=O)c3c(F)cccc3F)C(=O)N2c2ccc(OC)cc2)cc1 | > 200 | 129 | – |

| Structure (SMILES) | EC50 [µM] | IC50 [µM] | outcome |
| --- | --- | --- | --- |
| C=C(CN)CO[Si](C)(C)C(C)(C)C | > 200 | 110 | – |
| COc1ccc(C2CC(c3c(O)ccc4ccccc34)=NN2c2ccc([N+](=O)[O-])cc2[N+](=O)[O-])cc1OC (configuration not stated) | > 200 | 15.8 | – |
| CC1CC2(S(=O)(=O)c3ccccc3)ON1CC2S(=O)(=O)c1ccccc1 (configuration not stated) | – | – | inactive |
| COc1ccc2c(O)c(Cl)c(=O)oc2c1 | > 200 | > 200 | – |
| COc1ccc(/C=C/C(=O)OCCc2ccccc2)cc1OC | > 25.1 | > 25.1 | – |
| O=C1CCCCN1 | – | – | inactive |
| c1ccc(-c2ccccc2SSc2ccccc2-c2ccccc2)cc1 | > 200 | 5.37 | – |
| CCN(CC)C(C)(C)C(=O)/C=C/c1ccc(C)cc1 | – | – | inactive |
| COc1c(Br)cc(C(=O)c2cc(Br)c(OC)c(C(=O)O)c2)cc1C(=O)O | > 1480 | > 1480 | – |
| Cl[Si]1(Cl)Oc2ccccc2O[Si](Cl)(Cl)Oc2ccccc2O1 | > 12.6 | > 12.6 | – |
| CCCCCCOC(=O)c1[nH]c(=O)n(CCCCCC)c(=O)c1NC(=O)CNc1ccc2c(=O)c3ccccc3[nH]c2c1 | > 200 | 1 | – |
| CC1CC[C@@]2(O)C(CCCC2(C)C)[C@]1(C)CCc1ccoc1 (some centres not stated) | – | – | inactive |
| O=C1OCC(Cc2ccc(O)c(O)c2)[C@H]1Cc1ccc(O)c(O)c1 (some centres not stated) | > 200 | 19.1 | – |
| CCOC(=O)c1cc(/C=C/C(C)=C/C(=O)OC)n(C)c1C | > 24.5 | > 24.5 | – |
| CCOP(=O)(OCC)C1CC(O)C(=O)N1 (configuration not stated) | > 200 | > 200 | – |
| CC1=Nc2ccccc2N=C(c2c(O)c3c(ccc4ccccc43)oc2=O)C1 | > 200 | 20 | – |
| CC(C)(C)c1cc2c(O)c(c1)Cc1cc(C(C)(C)C)cc(c1O)Cc1cc(C(C)(C)C)cc(c1O)Cc1cc(C(C)(C)C)cc(c1O)C2 | > 77.6 | > 77.6 | – |
| CC(C)(C)c1cc(N=NC(=S)NCc2ccccc2)cc(C(C)(C)C)c1O | > 7.08 | > 7.08 | – |
| CN(C)S(=O)(=O)c1cc(Cl)cc(Cc2cc(Cl)cc(S(=O)(=O)N(C)C)c2O)c1O | > 74.1 | 4.37 | – |
| CC1=NOC(=O)/C1=C/c1cccc2ccccc12 | > 1050 | > 1050 | – |
